Assay results from ChEMBL document CHEMBL4052645, “Discovery of potent and efficacious pyrrolopyridazines as dual JAK1/3 inhibitors” (Bioorg Med Chem Lett, 2017).

Columns and labels:
[1] = biological target: MAP kinase-interacting serine/threonine-protein kinase 1 (Homo sapiens) (UniProt Q9BUB5); test: Inhibition of wild-type human full length MNK1 (M1 to L424 residues) expressed in mammalian expression system assessed as residual activity at 50 nM by Kinomescan method relative to control
[2] = biological target: Serine/threonine-protein kinase Nek1 (Homo sapiens) (UniProt Q96PY6); test: Inhibition of wild-type human partial length NEK1 (M1 to K278 residues) expressed in bacterial expression system assessed as residual activity at 50 nM by Kinomescan method relative to control
[3] = biological target: Rho-associated protein kinase 1 (Homo sapiens, UniProt Q13464); test: Inhibition of human ROCK1 (M1 to R415 residues) expressed in mammalian expression system assessed as residual activity at 50 nM by KINOMEscan assay relative to control
[4] = biological target: Serine/threonine-protein kinase MARK1 (Homo sapiens) (UniProt Q9P0L2); test: Inhibition of wild-type human partial length MARK1 (Q30 to T341 residues) expressed in bacterial expression system assessed as residual activity at 50 nM by Kinomescan method relative to control
[5] = biological target: Myosin light chain kinase 2, skeletal/cardiac muscle (Homo sapiens) (UniProt Q9H1R3); test: Inhibition of wild-type human partial length SKMLCK (D258 to K570 residues) expressed in bacterial expression system assessed as residual activity at 50 nM by Kinomescan method relative to control
[6] = biological target: Phosphatidylinositol 4-phosphate 5-kinase type-1 alpha (Homo sapiens) (UniProt Q99755); test: Inhibition of human PIP5K1A (M1 to H562 residues) expressed in bacterial expression system assessed as residual activity at 50 nM by KINOMEscan assay relative to control
Phosphatidylinositol 4-phosphate 5-kinase type-1 alpha (Homo sapiens), sequence (Q99755 whole entry, the tested form may be a part): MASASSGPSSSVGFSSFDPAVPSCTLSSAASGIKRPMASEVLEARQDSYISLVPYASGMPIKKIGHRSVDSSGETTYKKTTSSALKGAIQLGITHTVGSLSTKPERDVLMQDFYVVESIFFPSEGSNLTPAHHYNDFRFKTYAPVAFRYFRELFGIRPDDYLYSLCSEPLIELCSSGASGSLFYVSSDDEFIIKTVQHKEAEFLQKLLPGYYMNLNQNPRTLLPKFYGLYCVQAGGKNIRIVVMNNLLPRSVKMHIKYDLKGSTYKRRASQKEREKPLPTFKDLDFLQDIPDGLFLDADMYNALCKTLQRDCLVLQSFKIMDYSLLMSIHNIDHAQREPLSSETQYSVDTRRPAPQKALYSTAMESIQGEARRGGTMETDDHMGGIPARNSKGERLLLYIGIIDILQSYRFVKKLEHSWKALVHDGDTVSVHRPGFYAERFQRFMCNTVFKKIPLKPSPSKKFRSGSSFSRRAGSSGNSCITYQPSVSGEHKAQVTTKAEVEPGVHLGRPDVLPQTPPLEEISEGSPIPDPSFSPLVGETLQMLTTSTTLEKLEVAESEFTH

[7] = biological target: Serine/threonine-protein kinase SIK3 (Homo sapiens) (UniProt Q9Y2K2); test: Inhibition of wild-type human partial length QSK (A90 to L395 residues) expressed in mammalian expression system assessed as residual activity at 50 nM by Kinomescan method relative to control
Serine/threonine-protein kinase SIK3 (Homo sapiens), sequence (Q9Y2K2 whole entry, looked up, the tested form may be a part): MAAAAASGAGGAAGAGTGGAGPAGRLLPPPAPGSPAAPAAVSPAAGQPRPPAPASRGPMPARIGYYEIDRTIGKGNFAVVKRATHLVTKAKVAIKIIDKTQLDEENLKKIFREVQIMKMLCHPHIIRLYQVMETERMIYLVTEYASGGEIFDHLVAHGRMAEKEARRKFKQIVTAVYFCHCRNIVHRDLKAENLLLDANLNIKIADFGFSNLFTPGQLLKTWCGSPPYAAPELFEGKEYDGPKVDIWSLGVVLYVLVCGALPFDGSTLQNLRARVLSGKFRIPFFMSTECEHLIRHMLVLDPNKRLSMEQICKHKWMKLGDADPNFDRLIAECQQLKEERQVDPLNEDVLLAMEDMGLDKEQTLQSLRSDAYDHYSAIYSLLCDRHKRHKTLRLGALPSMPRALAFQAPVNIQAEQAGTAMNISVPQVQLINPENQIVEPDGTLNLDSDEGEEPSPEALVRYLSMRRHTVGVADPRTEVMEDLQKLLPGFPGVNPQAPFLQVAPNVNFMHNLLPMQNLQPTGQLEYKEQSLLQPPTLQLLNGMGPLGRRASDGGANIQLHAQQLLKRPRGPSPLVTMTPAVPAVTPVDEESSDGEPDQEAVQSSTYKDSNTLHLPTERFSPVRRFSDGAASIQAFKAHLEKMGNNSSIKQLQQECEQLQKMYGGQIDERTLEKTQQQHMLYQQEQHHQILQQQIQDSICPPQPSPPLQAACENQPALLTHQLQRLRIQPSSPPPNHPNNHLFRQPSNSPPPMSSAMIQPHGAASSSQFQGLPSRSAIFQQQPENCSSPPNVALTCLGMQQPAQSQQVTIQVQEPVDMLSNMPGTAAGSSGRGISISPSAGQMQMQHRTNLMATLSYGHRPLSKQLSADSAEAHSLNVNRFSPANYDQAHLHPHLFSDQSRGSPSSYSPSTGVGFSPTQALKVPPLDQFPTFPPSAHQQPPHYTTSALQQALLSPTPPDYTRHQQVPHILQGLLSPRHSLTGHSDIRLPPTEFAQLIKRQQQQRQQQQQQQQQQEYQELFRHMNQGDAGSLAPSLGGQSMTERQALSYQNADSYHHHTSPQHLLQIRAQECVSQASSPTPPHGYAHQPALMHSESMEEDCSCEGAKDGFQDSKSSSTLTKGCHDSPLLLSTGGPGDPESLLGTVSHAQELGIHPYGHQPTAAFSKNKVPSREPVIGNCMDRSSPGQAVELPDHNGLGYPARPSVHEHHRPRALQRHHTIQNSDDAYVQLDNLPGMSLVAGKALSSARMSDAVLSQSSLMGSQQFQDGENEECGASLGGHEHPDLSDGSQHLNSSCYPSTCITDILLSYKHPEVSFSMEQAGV

[8] = biological target: Bone morphogenetic protein receptor type-1A (Homo sapiens) (UniProt P36894); test: Inhibition of wild-type human partial length BMPR1A (Q214 to I532 residues) expressed in bacterial expression system assessed as residual activity at 50 nM by Kinomescan method relative to control
[9] = biological target: LIM domain kinase 2 (Homo sapiens) (UniProt P53671); test: Inhibition of wild-type human full length LIMK2 (M1 to P638 residues) expressed in bacterial expression system assessed as residual activity at 50 nM by Kinomescan method relative to control
LIM domain kinase 2 (Homo sapiens), sequence (P53671 whole entry, looked up, the tested form may be a part): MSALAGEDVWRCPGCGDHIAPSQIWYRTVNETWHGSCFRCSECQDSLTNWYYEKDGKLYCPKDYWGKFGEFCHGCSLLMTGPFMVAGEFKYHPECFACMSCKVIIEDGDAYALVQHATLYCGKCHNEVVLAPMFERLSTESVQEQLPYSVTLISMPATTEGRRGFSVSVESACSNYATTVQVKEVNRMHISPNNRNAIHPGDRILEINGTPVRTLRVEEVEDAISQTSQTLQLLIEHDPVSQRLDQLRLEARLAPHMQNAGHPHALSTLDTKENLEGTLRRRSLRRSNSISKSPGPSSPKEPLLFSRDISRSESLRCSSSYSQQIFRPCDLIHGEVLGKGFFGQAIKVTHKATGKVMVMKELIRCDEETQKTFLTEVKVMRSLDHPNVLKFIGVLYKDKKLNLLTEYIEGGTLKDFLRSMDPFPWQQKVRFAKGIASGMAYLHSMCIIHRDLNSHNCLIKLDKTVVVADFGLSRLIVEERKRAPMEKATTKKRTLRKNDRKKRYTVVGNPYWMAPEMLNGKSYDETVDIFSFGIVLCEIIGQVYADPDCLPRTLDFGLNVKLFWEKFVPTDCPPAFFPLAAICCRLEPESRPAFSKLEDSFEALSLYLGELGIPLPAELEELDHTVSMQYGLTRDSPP

[10] = biological target: Serine/threonine-protein kinase LATS2 (Homo sapiens) (UniProt Q9NRM7); test: Inhibition of wild-type human partial length LATS2 (Q641 to V1088 residues) expressed in mammalian expression system assessed as residual activity at 50 nM by Kinomescan method relative to control
[11] = biological target: Serine/threonine-protein kinase D2 (Homo sapiens) (UniProt Q9BZL6); test: Inhibition of wild-type human partial length PKD2 (A519 to E838 residues) expressed in bacterial expression system assessed as residual activity at 50 nM by Kinomescan method relative to control
[12] = biological target: Atypical kinase COQ8A, mitochondrial (Homo sapiens) (UniProt Q8NI60); test: Inhibition of wild-type human […] ADCK3 (M280 to Q647 residues) expressed in bacterial expression system assessed as residual activity at 50 nM by Kinomescan method relative to control
[13] = biological target: Serine/threonine-protein kinase TAO3 (Homo sapiens) (UniProt Q9H2K8); test: Inhibition of wild-type human partial length TAO3 (M1 to T316 residues) expressed in mammalian expression system assessed as residual activity at 50 nM by Kinomescan method relative to control
[14] = biological target: Phosphatidylinositol 4-kinase beta (Homo sapiens) (UniProt Q9UBF8); test: Inhibition of wild-type human full length PIK4CB (M1 to M828 residues) expressed in mammalian expression system assessed as residual activity at 50 nM by Kinomescan method relative to control
[15] = biological target: Ribosomal protein S6 kinase alpha-4 (Homo sapiens) (UniProt O75676); test: Inhibition of wild-type human partial length N-terminal MSK2 kinase domain 1 expressed in bacterial expression system assessed as residual activity at 50 nM by Kinomescan method relative to control
[16] = biological target: Rhodopsin kinase GRK1 (Homo sapiens) (UniProt Q15835); test: Inhibition of wild-type human full length RHOK (M1 to S563 residues) expressed in mammalian expression system assessed as residual activity at 50 nM by Kinomescan method relative to control
[17] = biological target: Serine/threonine-protein kinase ULK2 (Homo sapiens) (UniProt Q8IYT8); test: Inhibition of wild-type human partial length ULK2 (M1 to S301 residues) expressed in mammalian expression system assessed as residual activity at 50 nM by Kinomescan method relative to control
[18] = biological target: Serine/threonine-protein kinase PAK 1 (Homo sapiens) (UniProt Q13153); test: Inhibition of wild-type human partial length PAK1 (S149 to H545 residues) expressed in bacterial expression system assessed as residual activity at 50 nM by Kinomescan method relative to control
Serine/threonine-protein kinase PAK 1 (Homo sapiens), sequence (Q13153 whole entry, the tested form may be a part): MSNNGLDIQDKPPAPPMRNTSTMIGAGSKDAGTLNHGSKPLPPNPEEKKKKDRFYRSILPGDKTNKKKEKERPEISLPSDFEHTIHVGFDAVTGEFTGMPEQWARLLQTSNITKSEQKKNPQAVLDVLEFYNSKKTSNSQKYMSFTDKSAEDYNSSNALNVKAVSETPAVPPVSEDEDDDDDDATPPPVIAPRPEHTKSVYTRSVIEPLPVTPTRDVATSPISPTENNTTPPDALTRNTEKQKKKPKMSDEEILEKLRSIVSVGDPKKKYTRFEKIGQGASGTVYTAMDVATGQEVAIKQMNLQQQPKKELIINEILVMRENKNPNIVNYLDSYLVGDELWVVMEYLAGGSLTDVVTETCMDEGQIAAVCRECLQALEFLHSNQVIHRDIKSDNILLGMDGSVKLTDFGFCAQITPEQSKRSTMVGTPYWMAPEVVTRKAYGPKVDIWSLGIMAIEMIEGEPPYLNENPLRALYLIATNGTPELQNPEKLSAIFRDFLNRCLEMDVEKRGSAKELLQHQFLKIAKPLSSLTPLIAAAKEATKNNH

[19] = biological target: Cyclin-dependent kinase 9 (Homo sapiens) (UniProt P50750); test: Inhibition of wild-type human full length CDK9 (M1 to F372 residues) expressed in bacterial expression system assessed as residual activity at 50 nM by Kinomescan method relative to control
[20] = biological target: Cyclin-dependent kinase 4/cyclin D1 (Homo sapiens) (UniProt P11802+P24385); test: Inhibition of wild-type human full length CDK4/cyclinD1 (M1 to E303 residues) expressed in mammalian expression system assessed as residual activity at 50 nM by Kinomescan method relative to control
[21] = biological target: BMP-2-inducible protein kinase (Homo sapiens) (UniProt Q9NSY1); test: Inhibition of human BIKE (S34 to N329 residues) expressed in bacterial expression system assessed as residual activity at 50 nM by KINOMEscan assay relative to control
BMP-2-inducible protein kinase (Homo sapiens), sequence (Q9NSY1 whole entry, looked up, the tested form may be a part): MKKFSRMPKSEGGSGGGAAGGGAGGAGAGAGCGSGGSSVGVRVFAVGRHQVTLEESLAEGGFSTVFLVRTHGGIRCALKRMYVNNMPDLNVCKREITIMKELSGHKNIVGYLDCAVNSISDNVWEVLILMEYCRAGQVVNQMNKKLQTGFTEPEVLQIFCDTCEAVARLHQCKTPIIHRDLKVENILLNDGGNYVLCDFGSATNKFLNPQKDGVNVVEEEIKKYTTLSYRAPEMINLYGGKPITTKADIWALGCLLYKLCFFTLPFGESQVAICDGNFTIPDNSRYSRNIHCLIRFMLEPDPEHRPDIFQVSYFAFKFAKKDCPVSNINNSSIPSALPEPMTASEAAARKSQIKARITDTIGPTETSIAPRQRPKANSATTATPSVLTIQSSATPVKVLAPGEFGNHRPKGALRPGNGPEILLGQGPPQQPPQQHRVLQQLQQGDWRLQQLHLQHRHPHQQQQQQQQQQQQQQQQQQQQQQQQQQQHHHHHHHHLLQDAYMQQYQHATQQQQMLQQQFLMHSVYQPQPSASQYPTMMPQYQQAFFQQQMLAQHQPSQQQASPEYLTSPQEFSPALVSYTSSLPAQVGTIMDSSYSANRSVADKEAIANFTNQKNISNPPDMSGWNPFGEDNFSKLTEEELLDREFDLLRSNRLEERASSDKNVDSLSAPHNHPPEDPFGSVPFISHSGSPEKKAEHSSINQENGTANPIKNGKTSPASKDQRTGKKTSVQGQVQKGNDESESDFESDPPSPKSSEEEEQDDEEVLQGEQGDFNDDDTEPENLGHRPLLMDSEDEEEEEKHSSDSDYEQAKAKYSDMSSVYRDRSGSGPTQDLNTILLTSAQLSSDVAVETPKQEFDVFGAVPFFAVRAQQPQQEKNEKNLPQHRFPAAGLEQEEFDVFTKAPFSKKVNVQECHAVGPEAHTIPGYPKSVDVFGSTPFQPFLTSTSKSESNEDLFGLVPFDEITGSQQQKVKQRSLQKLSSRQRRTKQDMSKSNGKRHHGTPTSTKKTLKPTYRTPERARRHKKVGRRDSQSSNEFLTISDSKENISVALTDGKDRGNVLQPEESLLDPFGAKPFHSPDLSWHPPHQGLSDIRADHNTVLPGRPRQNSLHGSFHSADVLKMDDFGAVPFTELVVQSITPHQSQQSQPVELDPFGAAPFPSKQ

JAK3/JAK1 = JAK3/JAK1 (Homo sapiens, UniProt P23458+P52333); test: Inhibition of JAK1/JAK3 in human whole blood assessed as reduction in IL-2 induced IFN-gamma production after 18 hrs by ELISA; format: protein-complex assay
[22] = biological target: Cyclin-dependent kinase 7 (Homo sapiens) (UniProt P50613); test: Inhibition of wild-type human full length CDK7 (M1 to L344 residues) expressed in mammalian expression system assessed as residual activity at 50 nM by Kinomescan method relative to control
Cyclin-dependent kinase 7 (Homo sapiens), sequence (P50613 whole entry, the tested form may be a part): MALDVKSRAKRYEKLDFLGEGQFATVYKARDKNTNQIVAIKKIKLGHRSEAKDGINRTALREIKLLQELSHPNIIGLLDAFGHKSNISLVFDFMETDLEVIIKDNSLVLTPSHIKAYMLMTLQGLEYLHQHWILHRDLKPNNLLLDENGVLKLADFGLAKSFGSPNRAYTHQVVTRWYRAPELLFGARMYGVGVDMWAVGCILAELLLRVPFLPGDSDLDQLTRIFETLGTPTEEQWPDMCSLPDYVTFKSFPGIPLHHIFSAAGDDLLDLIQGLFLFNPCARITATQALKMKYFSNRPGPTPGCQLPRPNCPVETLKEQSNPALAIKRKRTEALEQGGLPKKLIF

[23] = biological target: Serine/threonine-protein kinase TNNI3K (Homo sapiens) (UniProt Q59H18); test: Inhibition of wild-type human HH498 (M1 to S835 residues) expressed in bacterial expression system assessed as residual activity at 50 nM by Kinomescan method relative to control
[24] = biological target: Serine/threonine-protein kinase mTOR (Homo sapiens) (UniProt P42345); test: Inhibition of wild-type human partial length MTOR (L1382 to W2549 residues) expressed in mammalian expression system assessed as residual activity at 50 nM by Kinomescan method relative to control

MAP kinase-interacting serine/threonine-protein kinase 1 (Homo sapiens), sequence (Q9BUB5 whole entry, looked up, the tested form may be a part): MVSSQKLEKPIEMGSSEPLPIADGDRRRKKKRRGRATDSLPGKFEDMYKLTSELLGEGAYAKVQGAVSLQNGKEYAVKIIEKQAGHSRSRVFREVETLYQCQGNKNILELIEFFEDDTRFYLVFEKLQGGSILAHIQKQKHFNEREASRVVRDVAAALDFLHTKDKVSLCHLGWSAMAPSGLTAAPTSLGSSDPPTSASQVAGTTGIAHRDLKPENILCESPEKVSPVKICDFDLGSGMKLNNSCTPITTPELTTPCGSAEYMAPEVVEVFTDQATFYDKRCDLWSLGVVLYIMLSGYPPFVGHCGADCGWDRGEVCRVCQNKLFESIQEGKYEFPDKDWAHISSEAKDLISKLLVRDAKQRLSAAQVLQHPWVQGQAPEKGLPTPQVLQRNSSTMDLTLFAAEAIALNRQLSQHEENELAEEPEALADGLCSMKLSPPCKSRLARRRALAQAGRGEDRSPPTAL

| Compound | Activity [1] | Activity [2] | Activity [3] | Activity [4] | Activity [5] | Activity [6] | Activity [7] | Activity [8] | Activity [9] | Activity [10] | Activity [11] | Activity [12] | Activity [13] | Activity [14] | Activity [15] | Activity [16] | Activity [17] | Activity [18] | Activity [19] | Activity [20] | also measured |
| --- | --- | --- | --- | --- | --- | --- | --- | --- | --- | --- | --- | --- | --- | --- | --- | --- | --- | --- | --- | --- | --- |
| COc1ccc(-c2cc3c(N[C@@H]4CC[C@](C)(N)C4(C)C)c(C(N)=O)cnn3c2)cn1 | 100% | 92% | 36% | 91% | 100% | 17% | 86% | 100% | 100% | 94% | 100% | 76% | 78% | 100% | 100% | 100% | 75% | 96% | 100% | 97% | Activity [21]: 42%; IC50 (JAK3/JAK1): 100 nM; Activity [22]: 84%; Activity [23]: 97%; Activity [24]: 97% |
| CC1(C)[C@H](Nc2c(C(N)=O)cnn3cc(-c4ccccc4)cc23)CC[C@]1(C)N | 54% | 100% | 5.3% | 99% | 90% | 8.8% | 68% | 100% | 92% | 100% | 100% | 100% | 82% | 90% | 100% | 100% | 36% | 88% | 93% | 100% | Activity [21]: 7.5%; IC50 (JAK3/JAK1): 200 nM; Activity [22]: 93%; Activity [23]: 83%; Activity [24]: 95% |
